What all share (type): in vivo
Experiment [1] deals with Dock. Briefly: pre-emergence herbicidal activity, greenhouse pots. The settings on record: 8 lb. per acre, 15 to 21 days, scale 0 = no injury to 10 = death. As for the experimental part:
(§1) In these experiments small plastic greenhouse pots filled with dry soil were seeded with California barnyardgrass, crabgrass, dock, downybrome, foxtail, Johnson grass, mustard weed, pigweed and velvetleaf. Twenty-four hours or less after seeding the pots were sprayed with water until the soil was wet and the test compounds formulated as aqueous emulsions of acetone solutions containing emulsifiers were sprayed at the rate of 8 lb. per acre on the surface of the soil.
(§2) After spraying, the soil containers were placed in the greenhouse and provided with supplementary heat as required and daily or more frequent watering. The plants were maintained under these conditions for a period of from 15 to 21 days, at which time the condition of the plants and the degree of injury to the plants was rated on a scale of from 0 to 10, as follows: 0 = no injury, 1,2 = slight injury, 3,4 = moderate injury, 5,6 = moderately severe injury, 7,8,9 = severe injury and 10 = death.

Experiment [2] has as its system Crabgrass. The experiment can be described thus: pre-emergence herbicidal activity, greenhouse pots. The settings on record: 8 lb. per acre, 15 to 21 days, scale 0 = no injury to 10 = death. The protocol: as §1, §2
Experiment [3] relates to Pigweed. The experiment can be described thus: pre-emergence herbicidal activity, greenhouse pots. The settings on record: 8 lb. per acre, 15 to 21 days, scale 0 = no injury to 10 = death. As for the experimental part:
as §1, §2

For experiment [4], the system named is Johnson grass. The experiment can be described thus: pre-emergence herbicidal activity, greenhouse pots. The settings on record: 8 lb. per acre, 15 to 21 days, scale 0 = no injury to 10 = death. The protocol: as §1, §2
For experiment [5], the system named is Foxtail. Briefly: pre-emergence herbicidal activity, greenhouse pots. The settings on record: 8 lb. per acre, 15 to 21 days, scale 0 = no injury to 10 = death. The protocol: as §1, §2
Experiment [6] concerns Velvetleaf. The experiment can be described thus: pre-emergence herbicidal activity, greenhouse pots. The settings on record: 8 lb. per acre, 15 to 21 days, scale 0 = no injury to 10 = death. As for the experimental part: as §1, §2
Experiment [7] relates to Downybrome. Briefly: pre-emergence herbicidal activity, greenhouse pots. Conditions: 8 lb. per acre, 15 to 21 days, scale 0 = no injury to 10 = death. As for the experimental part:
as §1, §2

Experiment [8] deals with California barnyardgrass. The experiment can be described thus: pre-emergence herbicidal activity, greenhouse pots. Conditions: 8 lb. per acre, 15 to 21 days, scale 0 = no injury to 10 = death. As for the experimental part: as §1, §2
For experiment [9], the system named is Mustard. Briefly: pre-emergence herbicidal activity, greenhouse pots. Conditions: 8 lb. per acre, 15 to 21 days, scale 0 = no injury to 10 = death. As for the experimental part: as §1, §2
The subject of experiment [10] is leaf rust on wheat, Puccinia rubigo-vera. Briefly: control of leaf rust on wheat (soil watering). The settings on record: about 25 cc. soil watering, rated 7 to 10 days after inoculation vs untreated. The protocol: The fungicidal utility of the compounds of this invention was illustrated by experiments carried out for the control of leaf rust on wheat, Puccinia rubigo-vera. In these experiments wheat plants were grown in soil until they were about 2-21/2 inches tall. The soil in which the plants were growing was then watered with about 25 cc. of a solution of the chemical in water. The plants were then placed in the greenhouse for about five days and inoculated with leaf rust spores by dusting the spores from diseased plants. After 7 to 10 days the growth of the fungus on the plants was measured and rated in comparison with plants inoculated but otherwise untreated.

Experiment [11] deals with Dock. Briefly: post-emergence herbicidal activity, foliage spray. Conditions: 8 lb. per acre on foliage, 10 to 15 days, scale 0 = no injury to 10 = death.
Source text: as §2
(§3) In these experiments the compounds to be tested were formulated as aqueous emulsions and sprayed at the rate of 8 lb. per acre on the foliage of California barnyardgrass, crabgrass, dock, downybrome, foxtail, Johnson grass, mustard weed, pigweed and velvetleaf that had attained a prescribed size. After spraying the plants were placed in a greenhouse and watered daily or more frequently. Water was not applied to the foliage of the treated plants. The severity of the injury was determined 10 to 15 days after treatment and was rated on the scale of from 0 to 10 heretofore described.

Experiment [12] concerns Crabgrass. Briefly: post-emergence herbicidal activity, foliage spray. The settings on record: 8 lb. per acre on foliage, 10 to 15 days, scale 0 = no injury to 10 = death.
Source text: as §2, §3

The subject of experiment [13] is Pigweed. The experiment can be described thus: post-emergence herbicidal activity, foliage spray. Conditions: 8 lb. per acre on foliage, 10 to 15 days, scale 0 = no injury to 10 = death.
Source text: as §2, §3

For experiment [14], the system named is Johnson grass. The experiment can be described thus: post-emergence herbicidal activity, foliage spray. The settings on record: 8 lb. per acre on foliage, 10 to 15 days, scale 0 = no injury to 10 = death.
Source text: as §2, §3

Experiment [15] deals with Foxtail. Briefly: post-emergence herbicidal activity, foliage spray. Conditions: 8 lb. per acre on foliage, 10 to 15 days, scale 0 = no injury to 10 = death.
Source text: as §2, §3

Experiment [16] relates to Velvetleaf. The experiment can be described thus: post-emergence herbicidal activity, foliage spray. Conditions: 8 lb. per acre on foliage, 10 to 15 days, scale 0 = no injury to 10 = death.
Source text: as §2, §3

Experiment [17] relates to Downybrome. Briefly: post-emergence herbicidal activity, foliage spray. Conditions: 8 lb. per acre on foliage, 10 to 15 days, scale 0 = no injury to 10 = death.
Source text: as §2, §3

The subject of experiment [18] is California barnyardgrass. The experiment can be described thus: post-emergence herbicidal activity, foliage spray. Conditions: 8 lb. per acre on foliage, 10 to 15 days, scale 0 = no injury to 10 = death.
Source text: as §2, §3

Experiment [19] concerns Mustard. The experiment can be described thus: post-emergence herbicidal activity, foliage spray. The settings on record: 8 lb. per acre on foliage, 10 to 15 days, scale 0 = no injury to 10 = death.
Source text: as §2, §3

Three molecules from patent US3948967A, “Aryl urea carbonates” (Velsicol Chemical Corporation, priority 1974, dated 1976) can be followed below.

For the molecule `CNC(=O)N(OC(=O)OC)c1ccc(Cl)c(Cl)c1` [Example 1, 1-(3,4-Dichlorophenyl)-1-methoxycarbonyloxy-3-methylurea], the “Injury Rating, Pre-Emergence” value in experiment [1] is 9.5; in experiment [2], 10; in [3], 10; in experiment [4], 9; in experiment [5], 10; in experiment [6], 10. For the same molecule, the figures for the “Injury Rating, Pre-Emergence” value in experiment [7], in experiment [8] and in [9] were 9, 9.5 and 10, respectively. The “% Control” value in [10] (200 ppm actual compound) turned out to be 100%. The “Injury Rating, Post-Emergence” value came to 8 in experiment [11]; 10 in experiment [12]; 10 in [13]; 8 in experiment [14]; 10 in [15]; 10 in [16]. The “Injury Rating, Post-Emergence” value in [17], in experiment [18] and in experiment [19] was 10 throughout.

For the molecule `CCOC(=O)ON(C(=O)NC)c1ccc(Cl)c(Cl)c1` [Example 2, 1-(3,4-Dichlorophenyl)-1-ethoxycarbonyloxy-3-methylurea], the “Injury Rating, Pre-Emergence” value in [1] was determined as 9; in [2] it was 10; in experiment [3] it was 10; in experiment [4] it was 8; in [5], 10; in experiment [6], 10. Besides, the “Injury Rating, Pre-Emergence” value in experiment [7] is reported as 9; in [8] it was 10; in experiment [9], 10. Moreover, in experiment [10] (200 ppm actual compound), the “% Control” value came to 100%. Besides, the “Injury Rating, Post-Emergence” value in [11] was 9; in experiment [12], 10; in [13], 10; in [14] it was 8; in experiment [15] it was 10; in [16] it was 10. Besides, the “Injury Rating, Post-Emergence” value in experiment [17], in [18] and in experiment [19] was 10 throughout.

With `CCOC(=O)ON(C(=O)NC)c1cc(Cl)ccc1Cl` [Example 3, 1-(2,5-Dichlorophenyl)-1-ethoxycarbonyloxy-3-methylurea], the “% Control” value in experiment [10] (1000 ppm actual compound) is reported as 95%.
